In patent US12612386B2, “Heteroaryl-triazole compounds as pesticides” (Bayer Aktiengesellschaft, priority 2020, dated 2026):

Legend:
Assay type in all cases: in vivo
[1] = system: cattle tick larvae (Rhipicephalus microplus), strain Parkhurst, resistant against synthetic pyrethroids; test: Rhipicephalus (Boophilus) microplus in-vitro contact test, larval cattle tick; settings: 5 μg/cm^2 (=500 g/ha), after 48 hours
Procedure: Rhipicephalus (Boophilus) Microplus—In-Vitro Contact Tests Larval Cattle Tick (Strain Parkhurst, Resistant Against Synthetic Pyrethroids)
(§1) 9 mg compound is solved in 1 mL acetone and diluted with acetone to the desired concentration. 250 μL of the test solution is filled in 25 mL glass test tubes and homogeneously distributed on the inner walls by rotation and tilting on a shaking device (2 h at 30 rpm). With a compound concentration of 900 ppm, an inner surface of 44.7 cm^2 and a homogeneous distribution, a dose of 5 μg/cm^2 is achieved.
After the solvent has evaporated, each test tube is filled with 20-50 cattle tick larvae (Rhipicephalus microplus), closed with a perforated lid and incubated in a horizontal position at 85% relative humidity and 27° C. in an incubator. After 48 hours efficacy is determined. The larvae are patted on the ground of the tubes and negative geotactic behavior is recorded.
An efficacy of 100% means all larvae are dead or moribund; 0% means no larvae are dead or moribund.

[2] = system: adult cat fleas (Ctenocephalides felis); test: Ctenocephalides felis in-vitro contact test, adult cat flea; settings: 5 μg/cm^2 (=500 g/ha), after 48 hours
Procedure: Ctenocephalides felis—In-Vitro Contact Tests Adult Cat Flea
as §1
(§2) After the solvent has evaporated, each test tube is filled with 5-10 adult cat fleas (Ctenocephalides felis), closed with a perforated lid and incubated in a lying position at room temperature and relative humidity. After 48 hours efficacy is determined. The fleas are patted on the ground of the tubes and are incubated on a heating plate at 45-50° C. for at most 5 minutes. Immotile or uncoordinated moving fleas, which are not able to escape the heat by climbing upwards, are marked as dead or moribund.
An efficacy of 100% means all fleas are dead or moribund; 0% means no fleas are dead or moribund.

[3] = system: adult brown dog ticks (Rhipicephalus sanguineus); test: Rhipicephalus sanguineus in-vitro contact test, adult brown dog ticks; settings: 48 h, read-out: efficacy (ticks dead or moribund)
Procedure: Rhipicephalus sanguineus—In-Vitro Contact Tests with Adult Brown Dog Ticks
as §1
as §2, with “brown dog ticks (Rhipicephalus sanguineus),” for “cat fleas (Ctenocephalides felis),”, “ticks” for “fleas”, “ticks,” for “fleas,”
An efficacy of 100% means all ticks are dead or moribund; 0% means no ticks are dead or moribund.

[4] = system: larvae of the banded cucumber beetle (Diabrotica balteata); test: Diabrotica balteata spray test; settings: 168 h, 100 g/ha (=32 μg/well), after 7 days, read-out: efficacy (seedling growth)
Outline: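 Germinated wheat seeds on agar (5 per well) were sprayed with compound formulated in acetone/DMF and diluted in water with 1000 ppm emulsifier. Each unit was then infested with 10–20 larvae. Efficacy % was scored after 7 days as seedling growth relative to an untreated, uninfested control (100% = normal growth).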

[5] = system: green peach aphid (Myzus persicae); test: Myzus persicae spray test (MYZUPE); settings: 120 h, 100 g/ha, after 5 days
Outline: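 Chinese cabbage leaf disks infested with all instars of Myzus persicae were sprayed with compound formulated in acetone/dimethylformamide and diluted in water with 1000 ppm alkylarylpolyglycol ether emulsifier. Percent mortality was scored after 5 days, 100% meaning all aphids killed.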

[6] = system: larvae of the southern green stink bug (Nezara viridula); test: whole plant or invertebrate; settings: 96 h
Outline: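 Compound in acetone/DMF was diluted in water with 1000 ppm alkylarylpolyglycol ether emulsifier. Barley plants were sprayed with it, then infested with Nezara viridula larvae. Mortality % was scored after 4 days (100% = all killed).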

[7] = system: fall armyworm larvae (Spodoptera frugiperda); test: whole plant or invertebrate; settings: 168 h
Outline: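 Maize leaf sections sprayed with compound in acetone/DMF with alkylarylpolyglycol ether emulsifier diluted in water, then infested with fall armyworm larvae once dry. Mortality (%) scored after 7 days; 100% = all caterpillars killed.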

[8] = system: brown planthopper (Nilaparvata lugens); test: Nilaparvata lugens spray test; settings: 96 h
Procedure: Nilaparvata lugens—Spray Test
• Solvent: 78.0 parts by weight of acetone • 1.5 parts by weight of dimethylformamide • Emulsifier: alkylarylpolyglycol ether
To produce a suitable preparation of active compound, 1 part by weight of active compound is mixed with the stated amount of solvents and is diluted with water, containing an emulsifier concentration of 1000 ppm, to the desired concentration. Further test concentrations are prepared by dilution with emulsifier containing water.
Rice plants (Oryza sativa) are sprayed with a preparation of the active ingredient of the desired concentration and the plants are infested with the brown planthopper (Nilaparvata lugens).
After 4 days mortality in % is determined. 100% means all planthoppers have been killed and 0% means none of the planthoppers have been killed.

Compound	efficacy (larvae dead or moribund) [1] [%]	efficacy (fleas dead or moribund) [2] [%]	pest or weed control at 5 µg/cm2, 500 g/ha [3] [%]	pest or weed control at 32 µg/disc, 100 g/ha [4] [%]	mortality at 100 g/ha [5] [%]	mortality at 500 g/ha [6] [%]	mortality at 100 g/ha [7] [%]	mortality at 500 g/ha [8] [%]
C[C@H](NC(=O)c1cc(Cl)cc(OC(F)(F)F)c1)c1ncnn1-c1cc(C#N)ncn1 [I-18]	100	90	100	100	90	100	100	–
C[C@H](NC(=O)c1cc(C(F)(F)F)cc(C(F)(F)F)c1)c1ncnn1-c1cc(C(=O)N(C)CC2CC2)ncn1 [I-76]	100	100	100	100	–	100	100	100
CC(C)N(C)C(=O)c1cc(-n2ncnc2[C@H](C)NC(=O)c2cc(Cl)cc(OC(F)(F)F)c2)ncn1 [I-56]	100	100	100	100	90	–	100	–
Cc1nc([C@H](C)NC(=O)c2cc(Br)cc(OC(F)F)c2)n(-c2cc(C(N)=O)ncn2)n1 [I-89]	100	100	100	100	100	100	100	–
CC(C)N(C)C(=O)c1cc(-n2ncnc2[C@H](C)NC(=O)c2cc(Br)cc(OC(F)(F)F)c2)ncn1 [I-55]	100	100	100	100	100	–	100	–
C[C@H](NC(=O)c1cc(OC(F)F)cc(OC(F)(F)F)c1)c1ncnn1-c1cc(C(N)=O)ncn1 [I-141]	100	100	100	100	90	100	100	100
CNC(=O)c1cc(-n2nc(C)nc2[C@H](C)NC(=O)c2cc(Cl)cc(OC(F)(F)F)c2)ncn1 [I-87]	100	100	100	100	100	100	100	–
Cc1nc([C@H](C)NC(=O)c2cc(Cl)cc(OC(F)(F)F)c2)n(-c2cc(C(N)=O)ncn2)n1 [I-85]	100	100	100	100	100	100	100	90
C[C@H](NC(=O)c1cc(F)cc(OC(F)(F)F)c1)c1ncnn1-c1cc(C(N)=O)ncn1 [I-80]	100	100	100	100	100	100	100	100
CNC(=O)c1cc(-n2ncnc2[C@H](C)NC(=O)c2cc(OC(F)F)cc(C3CC3)c2)ncn1 [I-67]	100	100	100	100	90	100	100	100
C[C@H](NC(=O)c1cc(Cl)cc(Cl)c1)c1ncnn1-c1cc(C(N)=O)ncn1 [I-69]	100	100	100	100	70	100	100	–
Cc1nc([C@H](C)NC(=O)c2cc(C(F)(F)F)cc(C(F)(F)F)c2)n(-c2cc(C(=O)N(C)CC3CC3)ncn2)n1 [I-75]	100	100	100	100	–	100	100	100
CCN(C)C(=O)c1cc(-n2nc(C)nc2[C@H](C)NC(=O)c2cc(C(F)(F)F)cc(C(F)(F)F)c2)ncn1 [I-63]	100	100	100	100	–	–	100	100
CC(C)N(C)C(=O)c1cc(-n2ncnc2[C@H](C)NC(=O)c2cc(OC(F)(F)F)cc(C3CC3)c2)ncn1 [I-57]	100	100	100	–	–	–	100	100
CNC(=O)c1cc(-n2nc(C)nc2[C@H](C)NC(=O)c2cc(Br)cc(OC(F)(F)F)c2)ncn1 [I-65]	100	100	100	100	90	100	100	–
C[C@H](NC(=O)c1cccc(OC(F)(F)F)c1)c1ncnn1-c1cc(C(N)=O)ncn1 [I-50]	100	100	100	100	90	–	100	100
CNC(=O)c1cc(-n2nc(C)nc2[C@H](C)NC(=O)c2cc(Br)cc(Br)c2)ncn1 [I-52]	100	100	100	100	–	–	100	–
Cc1nc([C@H](C)NC(=O)c2cc(OC(F)F)cc(OC(F)F)c2)n(-c2cc(C(N)=O)ncn2)n1 [I-98]	100	100	100	100	100	100	100	–
Cc1nc([C@H](C)NC(=O)c2cc(Cl)cc(Cl)c2)n(-c2cc(C(N)=O)ncn2)n1 [I-95]	100	100	100	100	90	100	100	–
